Entries after “also recorded” stand apart in the source; their conditions may differ.
Key:
MCF-7 cells = experiment: MTT cytotoxicity, breast cancer cells MCF-7; type: cell-based, human; conditions: MTT, no * mark (incubation time not specified)
Text: (§1) The cytotoxicity, general tyrosine kinase inhibitory effects and cell death (apoptosis/necrosis) assays of 1-benzyl-3-(1H-indol-3-ylmethylidene)-1,3-dihydro-2H-indol-2-one derivatives (Formula 5) of the present invention are studied by the following methods. […] HUVEC (human umbilical vein endothelial cell), MCF-10F (human breast epithelial cell) and Beas2b (human lung bronchial epithelial cell) cell lines have been used as healthy control cells in MTT experiments.
(§2) Beas2b (human lung bronchiole epithelial cell) and HEK293 (renal tubule epithelium) cells used as normal cell lines were cultured in RPMI medium, and HUVEC (human umbilical cord endothelial cells) and MCF-10F (human breast epithelial cell) cells are cultured in DMEM medium containing 100 µg/ml penicillin/streptomycin. The cells, which covered 70% of the culture flask, are washed with phosphate buffer and then removed from the surface of the flask by application of trypsin-ethylenediamine tetraacetic acid (Trypsin-EDTA; 0.25%) solution, passaged, counted and seeded on appropriate plates before each experiment. Cells are treated with a total of 45 2-indolinone compounds (5) at concentrations of 0.1, 1, 5 and 10 μM. Stock compounds are prepared in 1 ml dimethylsulfoxide (DMSO) and 4 different dilutions were prepared with medium and performed to the cells. Control group cells are treated with DMSO at a similar concentration to the experimental groups.
(§3) MTT (3-(4,5-dimethylthiazol-2-yl)-2,5-diphenyl-2H-tetrazolium bromide) colorimetric assay provides quantitation of viable cells with ongoing mitochondrial activity in culture medium. According to the standard procedure in cell culture conditions, cells are maintained in RPMI-1640 and DMEM culture media containing 10% FBS and 1% penicillin/streptomycin. The trypan blue test is used for cell counts.
(§4) The effects of 45 2-indolinone compounds (5) on cell viability in all cancer cell lines are investigated by MTT assay. Cells are seeded in a 96-well flat bottom plate with 5000 cells in each well and 2-indolinone compounds (5) at concentrations of 0.1, 1, 5 and 10 μM are performed to the cells the next day. After 48 and/or 72 hours following treatment with 2-indolinone compounds, 50 μl of the supernatant is slowly discarded (as it was acid medium) and MTT at a concentration of 5 mg/ml is added to each well in a volume of 10 μl. After incubation for 4 hours, the formazan crystals formed in the wells are dissolved by adding 100 μl DMSO and the optical density is read at 570 nm test wavelength and 630 nm reference wavelength. Cell viability is expressed as % cell viability by comparing the absorbance of control and test wells. IC50 value is calculated from the dose-response curves prepared for each compound. In addition, the possible DMSO effect is eliminated by preparing negative control wells compatible with the amount of DMSO contained in the compounds. To understand the reaction of the compounds with MTT, cell-free (MTT+compounds) negative controls are prepared at the concentrations used (Mosmann, 1983). […] The absorbance values obtained are compared to the control and statistically evaluated by unpaired t-test using “Graphpad Prism 5.04” software. “P<0.05” is accepted as significant. When evaluating cytotoxic effects, the present inventors aim for the inventive compounds to be effective in cancer cells and ineffective in healthy cells. The inventive compounds have also been compared with sunitinib, one of the reference chemotherapy drugs currently used in treatment.
(§5) Among the compounds of the present invention, those that killed cancer cells by at least 50% (p<0.05) are selected and tested whether a 10-fold concentration of the M concentration at the IC50 value is toxic to normal healthy cells.

MDA-MB-231 cells = experiment: MTT cytotoxicity, breast cancer cells MDA-MB-231; type: cell-based, human; conditions: read-out: IC50, MDA-MB-231 (breast); MTT, no * mark (incubation time not given)
Text: as §1, §2, §3, §4, §5

A549 cells = experiment: MTT cytotoxicity, lung cancer cells A549; type: cell-based, human; conditions: no * mark (incubation time not specified)
Text: as §1, §2, §3, §4, §5

CAKI-1 cells = experiment: MTT cytotoxicity, kidney cancer cells CAKI-1; type: cell-based, human; conditions: no * mark (incubation time not specified)
Text: as §1, §2, §3, §4, §5

A498 cells = experiment: MTT cytotoxicity, kidney cancer cells A498; type: cell-based, human; conditions: MTT, no * mark (incubation time not specified)
Text: as §1, §2, §3, §4, §5

MCF-10F/Beas2b cells = experiment: MTT cytotoxicity, healthy cells MCF-10F/Beas2b; type: cell-based, human; conditions: for Selectivite Index, MCF-10F/Beas2b (Table 2): MCF-10F/Beas2b vs colon or pancreas cancer cells, cancer line not given
Text: as §1, §2, §3, §4, §5

HUVEC cells = experiment: MTT cytotoxicity, healthy cells HUVEC; type: cell-based, human; conditions: for Selectivite Index, HUVEC (Table 2): HUVEC vs colon or pancreas cancer cells, cancer line not given; for IC50: MTT, no * mark (incubation time not specified)
Text: as §1, §2, §3, §4, §5

HT-29 cells = experiment: MTT cytotoxicity, colon cancer cells HT-29; type: cell-based, human; conditions: for IC50: MTT, no * mark (incubation time not specified)
Text: as §1, §2, §3, §4

HCT-116 cells = experiment: MTT cytotoxicity, colon cancer cells HCT-116; type: cell-based, human; conditions: no * mark (incubation time not specified)
Text: as §1, §2, §3, §4

MIAPaCa-2 cells [1] = experiment: MTT cytotoxicity, pancreas cancer cells MIAPaCa-2; type: cell-based, human; conditions: for IC50: MTT, no * mark (incubation time not specified)
Text: as §1, §2, §3, §4

human cancer cells = experiment: MTT cell viability, human cancer cells overall; type: cell-based; conditions: cell line as discussed at the place
Text: as §1, §2, §3
The effects of 45 2-indolinone compounds (5) on cell viability in all cancer cell lines are investigated by MTT assay. Cells are seeded in a 96-well flat bottom plate with 5000 cells in each well and 2-indolinone compounds (5) at concentrations of 0.1, 1, 5 and 10 μM are performed to the cells the next day. After 48 and/or 72 hours following treatment with 2-indolinone compounds, 50 μl of the supernatant is slowly discarded (as it was acid medium) and MTT at a concentration of 5 mg/ml is added to each well in a volume of 10 μl. After incubation for 4 hours, the formazan crystals formed in the wells are dissolved by adding 100 μl DMSO and the optical density is read at 570 nm test wavelength and 630 nm reference wavelength. Cell viability is expressed as % cell viability by comparing the absorbance of control and test wells. IC50 value is calculated from the dose-response curves prepared for each compound. In addition, the possible DMSO effect is eliminated by preparing negative control wells compatible with the amount of DMSO contained in the compounds. To understand the reaction of the compounds with MTT, cell-free (MTT+compounds) negative controls are prepared at the concentrations used (Mosmann, 1983). […] The absorbance values obtained are compared to the control and statistically evaluated by unpaired t-test using “Graphpad Prism 5.04” software. “P<0.05” is accepted as significant. When evaluating cytotoxic effects, the present inventors aim for the inventive compounds to be effective in cancer cells and ineffective in healthy cells. […]

[2] = test system: general tyrosine kinase activity in MIA PaCa-2 pancreas cancer cells; experiment: General tyrosine kinase activity (ELISA) in MIAPaCa-2 cells; type: cell-based, human; conditions: 72 hours, IC50 concentration
Experimental: Takara Universal Tyrosine Kinase Assay Kit is used to determine the effects of 11 2-indolinone compounds (Y1, Y2, Y3, Y4, Y5, Y8, […], […], Y21, Y23, 20C, 22C) on general tyrosine kinase activity in cancer cells. Cells are seeded in 6-well plates (4.10^5 cells/well) and the IC50 concentration of each selected molecule is performed to the cells for 48 or 72 hours. Cells in the control group are incubated with medium only. At the end of the incubation period, the cells in each well are washed with PBS and cells are removed from the wells using a cell scraper via 1 ml of the extraction buffer in the kit. The cell lysate is transferred to ependorf tubes and centrifuged at 10.000 g for 10 minutes at +4° C. and the supernatant is used as a sample for activity determination. After the extracts obtained from the control and experimental groups are diluted 1:25, 40 μl extracts is transferred to two wells in the 96-well plate in the kit. In addition, the standard solution in the kit is diluted according to the kit instructions and each concentration is transferred 40 μl into three wells. 10 μl of 40 mM ATP-2Na solution is added to all wells and the plate is incubated at 37° C. for 30 minutes. After incubation, all wells are washed 4 times with wash buffer. 100 μl of blocking solution is added to each well and incubated again at 37° C. for 30 minutes. After incubation, the liquid in the wells is discarded and 50 μl of anti-phosphotyrosine-HRP solution is added to each well and incubated at 37° C. for 30 minutes. The wells are washed again four times with wash buffer and 100 μl of HRP-substrate solution (TMBZ) is added to each well and incubated at 37° C. for 15 minutes. The reaction is finished by adding 100 μl of stop solution to each well and the optical density in each well is measured at 405 nm with a microplate reader (BioTek, USA). The tyrosine kinase activity in each sample is calculated from the standard curve obtained from the absorbance values of the standard solutions with the kit (Chan W Y, Lau P M, Yeung K W, Kong S K. The second generation tyrosine kinase inhibitor dasatinib induced eryptosis in human erythrocytes—An in vitro study. Toxicol Lett. 2018; 295:10-21). This activity is normalized compared to the control group by dividing by the amount of protein in each sample.
The effects of 11 2-indolinone compounds (Y1, Y2, Y3, Y4, Y5, Y8, Y14, Y21, Y23, 20C and 22C) having the structure of formula (5), which are prominent with their cytotoxicity in A498, MIAPaCa-2 and HCT-116 cancer cell lines and nontoxic properties in healthy cells, on general tyrosine kinase activity in cancer cells are determined.

MIAPaCa-2 cells [3] = experiment: Apoptosis/necrosis detection, Annexin V/PI flow cytometry, MiaPaca-2; type: cell-based, human; conditions: for necrosis compared to control: MiaPaca-2; for apoptosis (early and late) compared to control: MiaPaca-2, IC50 values
Experimental: (§6) After incubation with 2-indolinone compounds (IC50 μM concentration; 48 and/or 72 hours), cells are washed twice with PBS and the cell pellet is suspended in Annexin V binding buffer. After this incubation, cells are incubated with FITC-conjugated Annexin V and propidium iodine staining solution for 15 minutes in the dark and at room temperature. Then, cells are analyzed by flow cytometry (Beckman coulter, Navios) (Wlodkowic, D., Skommer, J, Darzynkiewicz, Z. 2009. Flow cytometry-based apoptosis detection, Methods Mol Biol., 559, 1-14).

[4] = test system: pancreas and kidney cancer cells; experiment: Apoptosis detection, Annexin V/PI flow cytometry, pancreas and kidney cancer cells; type: cell-based, human
Experimental: as §6
Whether the 2-indolinone derivatives (5) with the highest selectivity index and general TKI activity stimulated apoptosis and necrosis is determined by Annexin V and propidium iodine staining in pancreas and kidney cancer cells. Annexin V/PI flow cytometry apoptosis values of the tested compounds Y1, Y2, Y3, Y4, Y8 and Y14 are found to be 40% and above in correlation with MTT results. The apoptosis rates of the control groups and the substances are analyzed by t test in GraphPad version 9.0.

| SMILES | IC50 (MCF-7 cells) [µM] | IC50 (MDA-MB-231 cells) [µM] | IC50 (A549 cells) [µM] | IC50 (CAKI-1 cells) [µM] | IC50 (A498 cells) [µM] | Selectivite Index, MCF-10F/Beas2b (Table 2) (MCF-10F/Beas2b cells) | Selectivite Index, HUVEC (Table 2) (HUVEC cells) | IC50 (HUVEC cells) [µM] | selectivity index (HT-29 cells; MCF-10F/Beas2b vs HT-29) | IC50 (HT-29 cells) [µM] | IC50 (HCT-116 cells) [µM] | IC50 (MIAPaCa-2 cells [1]) [µM] | potency/selectivity compared with sunitinib malate (human cancer cells) | selectivity index (MIAPaCa-2 cells [1]; MCF-10F/Beas2b vs MIAPaCa-2) | general tyrosine kinase activity compared to control [2] | necrosis compared to control (MIAPaCa-2 cells [3]) | apoptosis (early and late) compared to control (MIAPaCa-2 cells [3]) | IC50 (MCF-10F/Beas2b cells; MTT, no * mark (incubation time not specified)) [µM] | Annexin V/PI flow cytometry apoptosis values [4] [%] |
| --- | --- | --- | --- | --- | --- | --- | --- | --- | --- | --- | --- | --- | --- | --- | --- | --- | --- | --- | --- |
| O=C1/C(=C\c2c[nH]c3ccccc23)c2ccccc2N1Cc1cccc(F)c1 [51C] | > 10 | > 10 | > 10 | > 10 | 6.22 | > 10.75 | 6.13 | 5.7 | > 11 | 0.93 | 1.13 | 5.2 | more potent and selective than Sunitinib malate | – | – | – | – | – | – |
| O=C1/C(=C\c2c[nH]c3ccccc23)c2cc(F)ccc2N1Cc1ccccc1 [Y5] | 4.44 | 7.94 | 7.81 | 3.42 | 4.32 | > 37.04 | 8.04 | 2.17 | – | 2.98 | 2.05 | 0.27 | – | > 37 | significantly decreased; also recorded: decreased the general tyrosine kinase activity | did not cause necrosis | increase in apoptosis at IC50 values was statistically significant | – | – |
| Cn1cc(/C=C2\C(=O)N(Cc3ccccc3)c3ccc(OC(F)(F)F)cc32)c2ccccc21 [Y14] | 6.09 | > 10 | > 10 | > 10 | > 10 | 45.06 | > 66.66 | > 10 | – | > 10 | > 10 | 0.15 | – | – | significantly decreased; also recorded: decreased the general tyrosine kinase activity | did not cause necrosis | increase in apoptosis at IC50 values was statistically significant | 6.76 | ≥ 40 |

Source: patent US20260335282A1, “NOVEL 3-ARYLIDENE-2-INDOLINONE DERIVATIVES FOR THERAPEUTIC USE” (ISTANBUL UNIVERSITESI REKTORLUGU, priority 2022, published 2026)
